According to patent publication EP0672421B1, “ENDOTHELIN ACTIVITY INHIBITOR” (Kurashiki Boseki Kabushiki Kaisha, priority 1993, dated 2002):
Positions of bridges follow the written chain, without caps; N, C: chain ends. No end group written: not given here.

Tested on: 3T3 cells
Assay: Increase of intracellular calcium ion concentration by addition of endothelin
Type: cell-based
Details: mouse 3T3 cells; endothelin-1 0.01 to 100 ng/ml; relative fluorescence intensity; Figure 4
Description: It is known that addition of endothelin into culture cell causes the elevation of intracellular Ca^2+ concentration.
Commercially available 3T3 cells (ATCC No.CCL92) cultured in a flask according to the standard method were used in the experiments. The cells adhered to a inner wall of the flask were harvested by trypsinization treatment, washed three times with Ca^2+-free phosphate buffered saline (PBS) and suspended into 200 µl of the Ca^2+-free PBS. Into the cell suspension, a fluorescent indicator of Ca^2+, FLUO-3AM (Wako chemicals: 1 mM in DMSO solution), was added at a final concentration of 1 µM. The cells were incubated at 37°C for 10 minutes to allow them to uptake the indicator. […]
The increase in relative fluorescence intensity caused by Ca^2+ influx was measured with FACScan of Becton, Dickinson & Co.. In the measurement, a base line was determined over 20 seconds, then a test substance (for example endothelin) was added into the sample and followed the time course of the relative fluorescence intensity for about 80 seconds.
Into each aliquots of the above cell suspension, endothelin-1 was added at a final concentration of 0.01 to 100 ng/ml to observe the changes in the relative fluorescence intensity.

“endothelin-1 (CSCSSLMDKECVYFCHLDIIW; disulfide 1-15, 3-11; ends not checked; UniProt P05305 53-73, looked up)” was tested, and the “increase of intracellular calcium ion concentration” value was “increase of the intracellular calcium ion concentration occurs in proportion to the concentration of endothelin”.
